Target: T1, Piezo1 (Mus musculus, UniProt E2JF22)
T1 construct: endogenous full-length channel in mouse juxtaglomerular cell line As4.1 (ATCC CRL2193); homotrimer
Test: Fluo-4 calcium imaging in As4.[…] cells, Hill fit
Type: cell-based
Details: agonist; native As4.1 cells, HBSS with extracellular Ca2+; no added modulator

T1 sequence (E2JF22 whole entry): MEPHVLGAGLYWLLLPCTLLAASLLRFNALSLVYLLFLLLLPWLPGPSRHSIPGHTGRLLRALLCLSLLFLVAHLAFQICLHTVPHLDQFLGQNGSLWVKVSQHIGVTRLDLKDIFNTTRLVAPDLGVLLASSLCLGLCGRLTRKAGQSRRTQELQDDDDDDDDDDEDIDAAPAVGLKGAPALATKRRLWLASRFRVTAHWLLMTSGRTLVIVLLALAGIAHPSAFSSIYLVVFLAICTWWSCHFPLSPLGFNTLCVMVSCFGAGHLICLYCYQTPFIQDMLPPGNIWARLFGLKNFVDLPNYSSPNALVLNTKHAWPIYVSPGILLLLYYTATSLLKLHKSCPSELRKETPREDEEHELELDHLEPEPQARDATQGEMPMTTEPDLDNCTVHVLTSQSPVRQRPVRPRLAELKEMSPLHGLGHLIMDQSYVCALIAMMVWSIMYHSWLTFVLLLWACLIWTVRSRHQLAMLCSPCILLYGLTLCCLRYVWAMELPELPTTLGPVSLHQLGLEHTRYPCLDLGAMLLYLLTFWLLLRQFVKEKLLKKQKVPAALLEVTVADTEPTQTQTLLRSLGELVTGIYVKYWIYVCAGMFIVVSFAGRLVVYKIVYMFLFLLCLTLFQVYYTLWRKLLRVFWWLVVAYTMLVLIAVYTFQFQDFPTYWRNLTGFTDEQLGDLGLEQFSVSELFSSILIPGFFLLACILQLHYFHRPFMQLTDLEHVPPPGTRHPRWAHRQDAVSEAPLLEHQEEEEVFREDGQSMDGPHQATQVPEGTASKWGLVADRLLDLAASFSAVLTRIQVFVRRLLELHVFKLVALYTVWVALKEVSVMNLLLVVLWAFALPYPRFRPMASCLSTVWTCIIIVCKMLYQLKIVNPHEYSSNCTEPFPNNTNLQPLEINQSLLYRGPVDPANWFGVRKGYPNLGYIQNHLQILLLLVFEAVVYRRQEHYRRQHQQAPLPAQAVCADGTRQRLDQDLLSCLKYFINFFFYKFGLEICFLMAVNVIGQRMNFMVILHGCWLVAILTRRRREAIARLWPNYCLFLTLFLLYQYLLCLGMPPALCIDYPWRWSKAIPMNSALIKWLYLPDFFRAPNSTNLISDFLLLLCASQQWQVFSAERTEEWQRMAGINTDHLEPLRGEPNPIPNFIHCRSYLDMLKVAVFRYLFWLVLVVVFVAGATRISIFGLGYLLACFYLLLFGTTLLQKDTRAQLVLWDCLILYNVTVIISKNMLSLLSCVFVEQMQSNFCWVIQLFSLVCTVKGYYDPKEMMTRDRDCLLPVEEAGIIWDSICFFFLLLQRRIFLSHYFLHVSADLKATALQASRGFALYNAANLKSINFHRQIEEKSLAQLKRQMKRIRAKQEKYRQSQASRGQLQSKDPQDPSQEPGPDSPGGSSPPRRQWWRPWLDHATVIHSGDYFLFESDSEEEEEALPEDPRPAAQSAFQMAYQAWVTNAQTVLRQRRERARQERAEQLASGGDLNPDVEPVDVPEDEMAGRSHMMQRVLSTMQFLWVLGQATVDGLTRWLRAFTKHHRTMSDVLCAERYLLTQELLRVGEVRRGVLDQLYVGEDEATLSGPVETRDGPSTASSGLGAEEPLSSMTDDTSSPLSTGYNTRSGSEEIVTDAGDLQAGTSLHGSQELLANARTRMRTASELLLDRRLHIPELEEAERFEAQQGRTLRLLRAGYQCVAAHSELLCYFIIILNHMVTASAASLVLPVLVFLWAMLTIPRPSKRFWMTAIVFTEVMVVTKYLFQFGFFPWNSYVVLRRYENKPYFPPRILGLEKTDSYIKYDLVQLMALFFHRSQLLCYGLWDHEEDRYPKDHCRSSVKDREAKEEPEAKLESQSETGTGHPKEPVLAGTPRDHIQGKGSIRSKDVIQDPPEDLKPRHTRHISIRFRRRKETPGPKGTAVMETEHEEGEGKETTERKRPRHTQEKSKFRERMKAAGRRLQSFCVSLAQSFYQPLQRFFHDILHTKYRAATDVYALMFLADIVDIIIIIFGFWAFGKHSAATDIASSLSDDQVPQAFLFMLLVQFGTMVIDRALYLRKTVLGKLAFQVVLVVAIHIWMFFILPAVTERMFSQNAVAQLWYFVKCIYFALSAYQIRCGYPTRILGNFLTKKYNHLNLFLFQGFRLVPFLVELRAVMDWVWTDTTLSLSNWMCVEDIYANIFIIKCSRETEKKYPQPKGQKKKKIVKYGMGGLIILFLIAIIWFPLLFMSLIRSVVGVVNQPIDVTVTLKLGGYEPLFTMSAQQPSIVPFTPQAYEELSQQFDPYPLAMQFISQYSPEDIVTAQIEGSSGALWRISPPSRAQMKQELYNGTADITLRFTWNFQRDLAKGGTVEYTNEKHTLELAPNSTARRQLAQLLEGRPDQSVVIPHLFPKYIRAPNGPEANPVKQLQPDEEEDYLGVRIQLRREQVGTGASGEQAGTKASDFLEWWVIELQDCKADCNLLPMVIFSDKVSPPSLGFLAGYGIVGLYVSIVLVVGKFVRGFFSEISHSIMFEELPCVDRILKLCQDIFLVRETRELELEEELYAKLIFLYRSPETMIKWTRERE

EC50: 7.68 µM
SMILES: Clc1cccc(Cl)c1CSc1nnc(-c2cnccn2)s1 [Yoda1]

Source: paper PMC9720979, “Activation of Piezo1 downregulates renin in juxtaglomerular cells and contributes to blood pressure homeostasis” (Cell & Bioscience, 2022)
